Data as given in US20070059720A9 (priority 2004, published 2007).
Where two headings read alike, the source gives them in different places.

Legend:
TR breast cancer = conditions: second-line therapy; cited from earlier work
MCF-7-MKP3 cells = assay: Anchorage-independent soft agar colony formation, MKP3-overexpressing MCF-7 transfectants; assay type: cell-based, human; conditions: MKP3-transfected cells; 100 nM OHT plus 10 nM ICI or 20 nM
Method: MCF-7 cells were originally obtained from Dr. Benita Katzenellebogen, but have been maintained in the inventors' laboratory for over 10 years (Fuqua et al., 2000). MCF-7 cells were maintained in Minimal Essential Medium (MEM, InVitrogen) supplemented with 5% fetal bovine serum (Summit Biotechnology, Fort Collins, Colo.), 200 U/ml penicillin, and 200 μg/ml streptomycin. Cells were incubated at 37° C. in 5% CO2. To generate MCF-7 cells stably overexpressing MKP3, 5 μg of the plasmid pcDNA3-MKP3-V5 (Furukawa et al., 2003) or empty vector (pcDNA3-His-V5, InVitrogen), were transfected into the cells using Fugene 6 reagent Roche Clinical Laboratories, Indianapolis, Ind.) in 100 mm tissue culture dishes following the manufacturer's protocol. Stable clones overexpressing MKP3 were selected as described (Fuqua et al., 2000), and positive clones were identified using immunoblot analysis with an anti-V5 antibody (1:5000 dilution)
(§1) Cells were starved for 2 days in PRF MEM (InVitrogen) supplemented with 5% fetal bovine serum (FBS, Summit Biotechnology, Fort Collins, Colo.), 6 ng/ml insulin, 200 units/ml penicillin, and 200 μg/ml streptomycin. Soft agar assays were performed in sixwell plates. Into each well, 1.5 ml of prewarmed (50° C.) 0.7% SeaPlaque agarose (FMC, Rockland, Me.) was added and dissolved in PRF MEM supplemented with 5% charcoal stripped FBS (Summit, Fort Collins, Colo.) to serve as the bottom layer, and allowed to solidify at 4° C. until to use. 0.5×10^4 cells as a single cell suspension were suspended in prewarmed (37° C.) of the same media, 4 ml of 0.5% SeaPlaque agarose was then added, and this suspension then plated as the top layer by adding it dropwise to the solidified bottom layer plates. Plates were cooled for 2 hours, and then transferred to a 37° C. humidified incubator. Two days after plating, media containing control vehicle, 1 nM estradiol, 100 nM 4-OH-Tam, 100 nM OHT plus 10 nM ICI, or 100 nM OHT plus 20 nM […] was added to the top cell layer, and the appropriate media was replaced every two days. After 14 days, the colonies were fixed, and the colony number of colonies >50 cells from quadruplicate assays were then counted. The data shown is the mean colony number of four plates, and is representative of two independent experiments.
(§2) In pancreatic cells, ectopic expression of MKP3 is reported to result in a suppression of cell growth (Fuqua et al., 2003). Thus, the growth characteristics of the MCF-7 stable MKP3 transfectants under different hormonal conditions were investigated using anchorageindependent soft agar assay (FIG. 4B).

[1] = system: MCF-7 vector control cells; assay: Anchorage-independent soft agar colony formation, MCF-7 vector control cells; assay type: cell-based, human; conditions: vector control cells; 100 nM OHT plus 10 nM ICI or 20 nM PD98065
Method: as §1, §2

breast cancer = conditions: cited from earlier work
cyclin D1 (CCND1) = assay: Immunoblot of CCND1 in MCF-7 transfectants; assay type: cell-based, human; conditions: MKP3 overexpressing cells
Method: (§3) Cells grown in 100 mm dishes were starved in phenol red-free (PRF), serum-free MEM (Specialty Media, Phillipsburg, N.J.) for 48 hours, and were then treated for 2 hours with vehicle (ethanol), estrogen (100 nM, 20), or OHT (100 nM). After treatment, cells were rinsed twice with ice-cold phosphate-buffered saline (PBS) and were then lysed immediately with 200 μl of cell lysis buffer (20 mM Tris HCl, pH 7.4, 150 mM NaCl, 1 mM B-glycerophosphate, 1 mM sodium orthovanadate, and 10% glycerol plus 1:100 proteinase inhibitor cocktail III) (Calbiochem, LaJolla, Calif.) per 100 mm tissue culture. The cell lysates were cleared by centrifugation at 16,100×g for 10 minutes at 4° C. Protein concentration was determined with the BCA Protein Assay kit (Pierce, Rockfold, Ill.) according to the manufacturer's directions. Equal amount of cell extracts were resolved under denaturing conditions by electrophoresis in 8-10% polyacrylamide gels containing sodium dodecyl sulfate (SDS-PAGE), and transferred to nitrocellulose membranes by electroblotting (Schleicher & Schuell, Keene, NH). […]
(§4) As expected with two hours of estrogen treatment, no induction of the two PR isoforms were detected in either the control vector (Con 1 and 2), or in the MKP3-transfected cells (FIG. 11A). […]

JNK = assay: Immunoblot of phospho-JNK in MCF-7 transfectants; assay type: cell-based, human; conditions: vector control cells treated with the inhibitor
Method: as §3

[2] = system: progesterone receptor (PR) A and B forms; assay: Immunoblot of PR-A and PR-B in MCF-7 transfectants; assay type: cell-based, human; conditions: MKP3 overexpressing cells
Method: (§5) Cells grown in 100 mm dishes were starved in phenol red-free (PRF), serum-free MEM (Specialty Media, Phillipsburg, N.J.) for 48 hours, and were then treated for 2 hours with vehicle (ethanol), estrogen (100 nM, 20), or OHT (100 nM). After treatment, cells were rinsed twice with ice-cold phosphate-buffered saline (PBS) and were then lysed immediately with 200 μl of cell lysis buffer (20 mM Tris HCl, pH 7.4, 150 mM NaCl, 1 mM B-glycerophosphate, 1 mM sodium orthovanadate, and 10% glycerol plus 1:100 proteinase inhibitor cocktail III) (Calbiochem, LaJolla, Calif.) per 100 mm tissue culture. The cell lysates were cleared by centrifugation at 16,100×g for 10 minutes at 4° C. Protein concentration was determined with the BCA Protein Assay kit (Pierce, Rockfold, Ill.) according to the manufacturer's directions. Equal amount of cell extracts were resolved under denaturing conditions by electrophoresis in 8-10% polyacrylamide gels containing sodium dodecyl sulfate (SDS-PAGE), and transferred to nitrocellulose membranes by electroblotting (Schleicher & Schuell, Keene, NH). After blocking of the transferred nitrocellulose membrane with TBST (20 mM Tris pH 7.6, 150 mM NaCl, 0.1% Tween-20) supplemented with 5% non-fat milk for 1 hour at room temperature, the membrane was incubated with primary antibodies either for 1 hour at room temperature (anti-ERα, 1:100 dilution; anti-AIB1, 1:100 dilution; anti-ERK2, 1:500 dilution; anti-Cyclin D1,1:500 dilution; anti-PR, C-19, 1:200 dilution; anti-p190, 1:1000 dilution; anti-V5, 1:5000 dilution), or overnight at 4° C. (anti-phospho MAPK, 1:1000 dilution; anti-phosphor-Ser118-ERα; 1:1000 dilution; MAPK p42/44, 1:1000 dilution), incubated with secondary antibodies for 1 hour at room temperature and then developed with Enhanced Chemiluminescence Reagents (Amersham Pharmacia Biotech, Piscataway, N.J.).
as §4

ERα = assay: Immunoblot of phospho-S118 ERα and total ERα in MCF-7 transfectants; assay type: cell-based, human; conditions: control and Tam-treated MKP3.2 cells
Method: as §5

ERK 1,2 MAPK = assay: Immunoblot of phospho-MAPK in MCF-7 transfectants; assay type: cell-based, human
Method: as §5
MAPK activity is tightly regulated by phosphorylation and dephosphorylation. MKP3 participates in a bidirectional regulatory loop with ERK2 MAPK, whereby ERK2 substrate binding is associated with catalytic activation of MKP3, and activated MKP3 negatively regulates pERK2 (Camps et al., 1998). […] Immunoblot analysis with anti-V5 was used to detect ectopic MKP3 expression in the two MKP3 transfectants (FIG. 5A, top panel). FIGS. 5B and 5C provide quantitation of results in FIG. 5A.

Compound | share of TR breast cancer patients who respond (TR breast cancer) | effect on Tam-induced colony formation (MCF-7-MKP3 cells) | effect on Tam-induced colony formation [1] | benefit compared to tamoxifen (breast cancer; ER+/PR+ group) | benefit compared to tamoxifen (breast cancer; ER+/PR− subgroup) | effect on tamoxifen induction of CCND1 (cyclin D1 (CCND1)) | pJNK level (JNK) | effect on PR-B levels in Tam-treated cells [2] | effect on the increase in pS118 ERα (ERα) | effect on the increase in pMAPK (ERK 1,2 MAPK; control and Tam-treated MKP3.2 cells) | effect on activation of MAPK (ERK 1,2 MAPK; vector control cells, all treatment conditions)
C[C@]12CC[C@@H]3c4ccc(O)cc4C[C@@H](CCCCCCCCC[S+]([O-])CCCC(F)(F)C(F)(F)F)[C@H]3[C@@H]1CC[C@@H]2O (stereo partly shown) [ICI182,780] | About two-thirds | completely blocked | completely blocked | – | – | – | – | – | – | – | –
CC(C)(C#N)c1cc(Cn2cncn2)cc(C(C)(C)C#N)c1 [anastrazole] | – | – | – | modest advantage | major benefit | – | – | – | – | – | –
COc1cccc(-c2cc(=O)c3ccccc3o2)c1N [PD98059] | – | completely blocked | completely blocked | – | – | blocked | elevated | restored | effectively inhibited | effectively inhibited | blocked activation of MAPK
